One may read the IC50 as the concentration that gives 50% inhibition. The term inhibition denotes the drop in the measured response relative to a control, in per cent.

The target in assay [1] is T1, 5-LO (Homo sapiens, UniProt P09917).
T1 sequence (P09917 1-674): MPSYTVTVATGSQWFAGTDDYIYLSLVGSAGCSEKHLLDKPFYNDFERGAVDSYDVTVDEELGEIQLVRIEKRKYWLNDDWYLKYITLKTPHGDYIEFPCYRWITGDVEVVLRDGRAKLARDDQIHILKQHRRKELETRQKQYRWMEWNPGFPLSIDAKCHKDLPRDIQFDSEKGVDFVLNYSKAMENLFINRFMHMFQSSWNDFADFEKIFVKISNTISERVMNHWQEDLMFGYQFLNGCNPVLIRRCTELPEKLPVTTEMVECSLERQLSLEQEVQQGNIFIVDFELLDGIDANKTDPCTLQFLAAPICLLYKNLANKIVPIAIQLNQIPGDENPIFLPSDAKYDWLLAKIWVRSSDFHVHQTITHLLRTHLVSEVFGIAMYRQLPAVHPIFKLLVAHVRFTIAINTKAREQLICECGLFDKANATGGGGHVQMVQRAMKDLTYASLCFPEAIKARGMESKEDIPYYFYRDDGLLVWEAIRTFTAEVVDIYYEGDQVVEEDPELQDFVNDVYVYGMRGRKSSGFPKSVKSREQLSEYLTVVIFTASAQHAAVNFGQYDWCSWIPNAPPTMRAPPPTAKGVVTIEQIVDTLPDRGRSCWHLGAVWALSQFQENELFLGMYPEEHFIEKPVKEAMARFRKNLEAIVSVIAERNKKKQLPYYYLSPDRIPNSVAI
Nature of the assay: 5-LO product formation in intact human neutrophils stimulated with A23187 (cell-based). The arrangement: 5-LO product formation in intact human neutrophils; endogenous in cells; host or cells: freshly isolated human peripheral blood neutrophils. The settings on record: for IC50: human neutrophils stimulated with A23187; for remaining activity at 10 µM: residual activity at 10 µM, A23187, mean ± SEM, 3–4 experiments, read-out: 5-LO Activity [% Control] cell-based. The protocol: Neutrophils were isolated from peripheral blood (University Hospital Tübingen, Germany), collected from fasted healthy adult donors that were informed about the aim of the study and gave written consent. Leukocyte concentrates were obtained by centrifugation (4000× g, 20 min, 20 °C) of heparinized blood preparation, and neutrophils were immediately isolated as described before. Briefly, leukocyte concentrates were subjected to dextran sedimentation and centrifuged on lymphocyte separation medium (LSM 1077, PAA, Coelbe, Germany). For isolation of pelleted neutrophils, remaining erythrocytes were removed by hypotonic lysis, washed twice with ice-cold phosphate-buffered saline (PBS) and finally resuspended in PBS buffer containing 0.1% glucose and CaCl2 (1 mM) (PGC buffer).
5-LO product formation in intact human neutrophils was performed using 5 × 10^6 freshly isolated cells that were resuspended in 1 mL PGC buffer. Cells were pre-incubated with the test compounds or vehicle (0.1% DMSO) at 37 °C for 15 min prior to stimulation with 2.5 µM Ca^2+-ionophore A23187 for 10 min (37 °C). 5-LO product formation was stopped by addition of one volume of ice-cold methanol, samples were subjected to solid phase extraction after addition of 200 ng PGB1 as internal standard, and 5-LO products (LTB4, its trans-isomers and 5-HETE) were analyzed by RP-HPLC as described above.

In assay [2] the target is T1, 5-LO. Description: 5-LO activity in a cell-free assay (isolated human recombinant 5-LO, 20 µM arachidonic acid). In kind it is biochemical. The arrangement: made in house; host or cells: Escherichia coli BL21 (pT3-5-LO plasmid). Conditions: for remaining activity at 10 µM / 5-LO Activity [% Control] cell-free: residual activity at 10 µM, isolated 5-LO, 20 µM arachidonic acid, mean ± SEM, 3–4 experiments; for remaining activity at 10 µM: read-out: 5-LO Activity [% Control] cell-free. The protocol: Human recombinant 5-LO was expressed in Eschericha coli BL21 transformed with pT3-5-LO plasmid at 30 °C overnight, as described elsewhere. Cells were lysed in lysis buffer containing triethanolamine (50 mM, pH 8.0), EDTA (5 mM), phenylmethanesulfonyl fluoride (1 mM), soybean trypsin inhibitor (60 µg/mL), dithiothreitol (2 mM), and lysozyme (1 mg/mL), and homogenized by sonification (3 × 15 s). 5-LO was then purified from 40,000× g supernatant (20 min, 4 °C) using an ATP-agarose column (Sigma-Aldrich, Deisenhofen, Germany), diluted with PBS buffer containing 1 mM EDTA, and immediately used for 5-LO activity assays.
To determine 5-LO activity, aliquots of purified 5-LO (0.5 µg 5-LO in 1 mL PBS plus 1 mM EDTA) were pre-incubated with the test compounds or vehicle (0.1% dimethyl sulfoxide, DMSO) on ice for 15 min, pre-warmed for 30 s at 37 °C in a water bath, and then stimulated with 20 µM AA and CaCl2 2 mM for 10 min at 37 °C. The reaction was stopped with one volume of ice-cold methanol and 5-LO products (including all-trans-isomers of LTB4 and 5-hydroperoxyeicosatetraenoic acid (5-HpETE), as well as its corresponding alcohol 5-hydroxyeicosatetraenoic acid (5-HETE)) were analyzed by reversed phase (RP)-HPLC (Elite LaChrom, VWR, Radnor, PA, USA) as previously described. In brief, acidified PBS and 200 ng of internal PGB1 standard were added and solid phase extraction using C18 RP-columns (100 mg, UCT, Bristol, PA, USA) was performed. After elution with methanol, samples were analyzed by RP-HPLC using a C-18 Radial-PAK column (Waters, Eschborn, Germany).

Another assay deals with T2, cathepsin G (Homo sapiens, UniProt P08311).
T2 construct: purified cathepsin G (0.2 µg) from human neutrophils; purchased Calbiochem; host or cells: human neutrophils (natural source)
T2 sequence (P08311 21-244 limits assumed): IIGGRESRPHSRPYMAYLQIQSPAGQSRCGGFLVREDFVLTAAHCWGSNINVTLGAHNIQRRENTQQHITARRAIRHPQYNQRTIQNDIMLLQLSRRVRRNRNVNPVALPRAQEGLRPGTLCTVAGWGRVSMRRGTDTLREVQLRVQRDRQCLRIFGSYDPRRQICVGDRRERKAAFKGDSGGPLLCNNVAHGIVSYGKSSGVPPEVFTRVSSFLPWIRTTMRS
Nature of the assay: Cathepsin G activity in a cell-free assay (Suc-AAPF-pNA substrate). It counts as biochemical. Conditions: for remaining activity at 10 µM / Cat. G Activity [% Control]: residual activity at 10 µM, mean ± SEM, 3–4 experiments; for remaining activity at 10 µM / IC50 / Cat. G Activity [% Control]: cell-free; for remaining activity at 10 µM: read-out: Cat. G Activity [% Control]; for inhibition at 10 µM / inhibition of cathepsin G: at 10 µM; for IC50: purified cathepsin G from human neutrophils, read-out: Cat. G IC50 (converted). The protocol:
Commercially available purified cathepsin G (0.2 µg) from human neutrophils (Calbiochem, La Jolla, CA, USA) was mixed with test compounds or DMSO (vehicle control) in 200 µL 0.1 M HEPES pH 7.4, 0.5 M NaCl, and 10% DMSO in a 96-well plate (Greiner Bio-One, Frickenhausen, Germany) and pre-incubated for 20 min at 25 °C. Then, N-Suc–Ala–Ala–Pro–Phe–pNA (Suc–AAPF–pNA) (1 mM) as substrate for cathespin G was added, and the absorbance was measured at 410 nm at 25 °C using a Victor^2 plate reader (PerkinElmer, Waltham, MA, USA).

Molecule `CC(C)=CCC[C@H](C(=O)O)[C@@H]1CC[C@]2(C)C3=CC[C@H]4C(C)(C)[C@H](O)CC[C@]4(C)[C@H]3CC[C@@]12C` [compound 13] had an IC50 at 5-LO [1] of 2900 nM. For the same molecule, the results for the remaining activity at 10 µM at 5-LO [1] (human neutrophils), at 5-LO [2] and on cathepsin G were 8.2 ± 2.2%, 89.6 ± 8.5% and 72.3 ± 3.6%, respectively. The molecule also showed an inhibition at 10 µM at cathepsin G of 27 to 44%.

Molecule `CC(C)=CCC[C@H](C(=O)O)[C@@H]1CC[C@]2(C)C3=C(CC[C@@]12C)[C@@]1(C)CC[C@@H](O)C(C)(C)[C@@H]1CC3` [compound 14] gave an IC50 on 5-LO [1] of 1100 nM. In addition, at 5-LO [1] (human neutrophils, IC50 comparison), the “fold more potent than AKBA 1 in intact cells” value is listed as “about 3 fold”. The remaining activity at 10 µM is 3.1 ± 0.6% at 5-LO [1] (human neutrophils), 66 ± 15.1% at 5-LO [2] and 73 ± 7.3% at cathepsin G. The results for the inhibition at 10 µM at 5-LO [2] and on cathepsin G were 34% and 27 to 44%, respectively.

Consider `CC(C)=CCC[C@H](C(=O)O)[C@@H]1CC[C@]2(C)C3=C(CC[C@@]12C)[C@@]1(C)CC[C@H](O)C(C)(C)[C@@H]1CC3` [compound 15], for which, on 5-LO [1], the IC50 is 3000 nM. For the same molecule, the remaining activity at 10 µM came to 5.2 ± 1% at 5-LO [1] (human neutrophils), 64.1 ± 12.4% at 5-LO [2] and 80.1 ± 6.2% at cathepsin G. The inhibition at 10 µM on 5-LO [2] is 36%. At cathepsin G, the “inhibition of cathepsin G” value is “failed to markedly inhibit cathepsin G”.

In turn, `CC(C)=CCC[C@H](C(=O)O)[C@@H]1CC[C@]2(C)C3=C(CC[C@@]12C)[C@@]1(C)CCC(=O)C(C)(C)[C@@H]1CC3` [compound 16] had an IC50 at 5-LO [1] of 7100 nM. Besides, the values for the remaining activity at 10 µM at 5-LO [1] (human neutrophils), at 5-LO [2] and on cathepsin G were 37.8 ± 2.4%, 77.1 ± 8.7% and 53.1 ± 5.5%, respectively. The inhibition at 10 µM on cathepsin G fell in the range of 27 to 44%.

Turning to `CC(=O)O[C@@H]1CC[C@]2(C)C3=C(CC[C@H]2C1(C)C)[C@@]1(C)CC[C@@H]([C@H](CCC=C(C)C)C(=O)O)[C@]1(C)CC3` [compound 17], the remaining activity at 10 µM at 5-LO [1] (human neutrophils) worked out at 75.5 ± 2.1%; at 5-LO [2], 75.6 ± 3%; on cathepsin G it was 66.7 ± 4.5%. In addition, the inhibition at 10 µM against cathepsin G lay in the range of 27 to 44%.

On 5-LO [1], `C[C@H]1[C@H](C)CC[C@]2(C)CC[C@]3(C)C(=C[C@@H](O)[C@@H]4[C@@]5(C)CC[C@@H](O)[C@](C)(C(=O)O)[C@@H]5CC[C@]43C)[C@H]12` [compound 18, 11α-Hydroxy-β-boswellic acid] gave an IC50 of 2800 nM. Further, the remaining activity at 10 µM at 5-LO [1] (human neutrophils) worked out at 18.3 ± 2.7%; on 5-LO [2], 72.8 ± 7.1%; on cathepsin G, 62.9 ± 6.6%. The inhibition at 10 µM at 5-LO [2] is under 25%.

`C[C@H]1[C@H](C)CC[C@]2(C)CC[C@]3(C)C(=C[C@H](O)[C@@H]4[C@@]5(C)CC[C@@H](O)[C@](C)(C(=O)O)[C@@H]5CC[C@]43C)[C@H]12` [compound 19, 11β-hydroxy-β-boswellic acid]: the remaining activity at 10 µM worked out at 58.2 ± 0.9% on 5-LO [1] (human neutrophils), 87.2 ± 1.8% at 5-LO [2] and 82.7 ± 9% at cathepsin G. The inhibition at 10 µM at 5-LO [2] is under 25%.

As to `C[C@H]1[C@H](C)CC[C@]2(C)CC[C@]3(C)C(=CC[C@@H]4[C@@]5(C)CC[C@@H](OC(=O)C(=O)O)[C@](C)(C(=O)O)[C@@H]5CC[C@]43C)[C@H]12` [compound 20, 3-O-Oxaloyl-β-boswellic acid], on 5-LO [1] (human neutrophils), the remaining activity at 10 µM was determined as 77.3 ± 5.7%. On 5-LO [2], the “5-LO Activity [% Control] cell-free” value is listed as “n.i”. Further, at cathepsin G, the 50% inhibitory concentration (IC50) was 4.7 µM and the remaining activity at 10 µM was determined as 38.1 ± 6.4%.

On to `C[C@H]1[C@H](C)CC[C@]2(C)CC[C@]3(C)C(=CC(=O)[C@@H]4[C@@]5(C)CC[C@@H](OC(=O)C(=O)O)[C@](C)(C(=O)O)[C@@H]5CC[C@]43C)[C@H]12` [compound 21, 3-O-Oxaloyl-11-keto-β-boswellic acid], for which, at 5-LO [1] (human neutrophils), the remaining activity at 10 µM was 70.3 ± 6.9%. Also, at 5-LO [2], the “5-LO Activity [% Control] cell-free” value is listed as “n.i”. In addition, at cathepsin G, the “inhibition of cathepsin G” value was “not active” and the “Cat. G Activity [% Control]” value was “n.i”.

Turning to `C[C@H]1[C@H](C)CC[C@]2(C)CC[C@]3(C)C(=CC[C@@H]4[C@@]5(C)CC[C@@H](OC(=O)CCC(=O)O)[C@](C)(C(=O)O)[C@@H]5CC[C@]43C)[C@H]12` [compound 22, 3-O-Succinoyl-β-boswellic acid], the remaining activity at 10 µM at 5-LO [1] (human neutrophils) came out at 60.3 ± 8%; at 5-LO [2] it was 85.9 ± 11.1%; on cathepsin G, 59.4 ± 7.6%.

On to `C[C@H]1[C@H](C)CC[C@]2(C)CC[C@]3(C)C(=CC(=O)[C@@H]4[C@@]5(C)CC[C@@H](OC(=O)CCC(=O)O)[C@](C)(C(=O)O)[C@@H]5CC[C@]43C)[C@H]12` [compound 23, 3-O-Succinoyl-11-keto-β-boswellic acid], for which the remaining activity at 10 µM on 5-LO [1] (human neutrophils) is 80.8 ± 6.8%. On 5-LO [2], the remaining activity at 10 µM turned out to be 75 ± 4.8%. For the same molecule, on cathepsin G, the “inhibition of cathepsin G” value is “not active” and the “Cat. G Activity [% Control]” value is “n.i”.

On to `C[C@H]1[C@H](C)CC[C@]2(C)CC[C@]3(C)C(=CC[C@@H]4[C@@]5(C)CC[C@@H](OC(=O)CCCC(=O)O)[C@](C)(C(=O)O)[C@@H]5CC[C@]43C)[C@H]12` [compound 24, 3-O-Glutaroyl-β-boswellic acid], for which the remaining activity at 10 µM turned out to be 65.3 ± 8% on 5-LO [1] (human neutrophils) and 24.5 ± 1.7% at cathepsin G. Also, the “5-LO Activity [% Control] cell-free” value on 5-LO [2] is “n.i”. Besides, the IC50 at cathepsin G is 3.6 µM.

Source of the values: PMC6017322, “Triterpene Acids from Frankincense and Semi-Synthetic Derivatives That Inhibit 5-Lipoxygenase and Cathepsin G” (Molecules : A Journal of Synthetic Chemistry and Natural …, 2018).
